Experimental data taken from PubChem BioAssay AID2060600 (Molecular Pharmacology Branch, DTP, NCI, 2025).

System: 996289-038-R-J1-PDC complex spheroid viability
Test: Anticancer human tumor 996289-038-R-J1-PDC patient-derived colon adenocarcinoma cell line growth inhibition [CLK]
Details: for IC50: curve of first compound; for viability, T/C: stronger effect = lower value
How it was run: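 Multi-cell-type spheroids combined patient-derived tumor cells with HUVEC endothelial cells and human mesenchymal stem cells. Paired agents were dosed in half-log steps down from about clinical Cmax, or from 10 microM where Cmax was unknown.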

[1] = second compound 0.0316 µM, first compound 0.0316 µM
[2] = second compound 0.0316 µM, first compound 0.1 µM
[3] = second compound 0.0316 µM, first compound 0.316 µM
[4] = second compound 0.0316 µM, first compound 1 µM
[5] = second compound 0.0316 µM, first compound 3.16 µM
[6] = second compound 0.0316 µM, first compound 10 µM
[7] = second compound 0.1 µM, first compound 0.0316 µM
[8] = second compound 0.1 µM, first compound 0.1 µM
[9] = second compound 0.1 µM, first compound 0.316 µM
[10] = second compound 0.1 µM, first compound 1 µM
[11] = second compound 0.1 µM, first compound 3.16 µM
[12] = second compound 0.1 µM, first compound 10 µM
[13] = second compound 0.316 µM, first compound 0.0316 µM
[14] = second compound 0.316 µM, first compound 0.1 µM
[15] = second compound 0.316 µM, first compound 0.316 µM
[16] = second compound 0.316 µM, first compound 1 µM
[17] = second compound 0.316 µM, first compound 3.16 µM
[18] = second compound 0.316 µM, first compound 10 µM
[19] = second compound 1 µM, first compound 0.0316 µM
[20] = second compound 1 µM, first compound 0.1 µM
[21] = second compound 1 µM, first compound 0.316 µM
[22] = second compound 1 µM, first compound 1 µM
[23] = second compound 1 µM, first compound 3.16 µM
[24] = second compound 1 µM, first compound 10 µM
[25] = second compound 3.16 µM, first compound 0.0316 µM
[26] = second compound 3.16 µM, first compound 0.1 µM
[27] = second compound 3.16 µM, first compound 0.316 µM
[28] = second compound 3.16 µM, first compound 1 µM
[29] = second compound 3.16 µM, first compound 3.16 µM
[30] = second compound 3.16 µM, first compound 10 µM
[31] = second compound 10 µM, first compound 0.0316 µM
[32] = second compound 10 µM, first compound 0.1 µM
[33] = second compound 10 µM, first compound 0.316 µM
[34] = second compound 10 µM, first compound 1 µM
[35] = second compound 10 µM, first compound 3.16 µM
[36] = second compound 10 µM, first compound 10 µM
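Note: spheroids exposed to the agents for 7 days before readout.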

For `C#Cc1c(F)ccc2cc(O)cc(-c3ncc4c(N5CC6CCC(C5)N6)nc(OCC56CCCN5CC(F)C6)nc4c3F)c12` (centres undefined) + CNC(=O)c1ccc(Nc2nc(OC3CCCC3)c3c(-c4ccc5nc(C)oc5c4)c[nH]c3n2)c(OC)c1, the IC50 (second compound 0.0316 µM) was 1.82 µM, the IC50 (second compound 0.1 µM) was 0.503 µM and the IC50 (second compound 0.316 µM) was 0.0991 µM. The IC50 (second compound 1 µM) was under 0.0316 µM, the IC50 (second compound 3.16 µM) was under 0.0316 µM and the IC50 (second compound 10 µM) was under 0.0316 µM. It also gave a viability, T/C [1] of 107%, a viability, T/C [2] of 93.2% and a viability, T/C [3] of 71%. It also gave a viability, T/C [4] of 62.4%, a viability, T/C [5] of 40% and a viability, T/C [6] of 29.3%. It also gave a viability, T/C [7] of 106%, a viability, T/C [8] of 77.1% and a viability, T/C [9] of 55.9%. For the same molecule, the viability, T/C [10] was 42.4%, the viability, T/C [11] was 32.2% and the viability, T/C [12] was 30.5%. It also gave a viability, T/C [13] of 60.7%, a viability, T/C [14] of 50.4% and a viability, T/C [15] of 35.6%. The viability, T/C [16] was 28.3%, the viability, T/C [17] was 25.5% and the viability, T/C [18] was 22.4%. It also gave a viability, T/C [19] of 33.8%, a viability, T/C [20] of 26.5% and a viability, T/C [21] of 25.4%. The viability, T/C [22] was 21.5%, the viability, T/C [23] was 22.1% and the viability, T/C [24] was 20.6%. For the same molecule, the viability, T/C [25] was 28.3%, the viability, T/C [26] was 24.3% and the viability, T/C [27] was 24.5%. The viability, T/C [28] was 21.4%, the viability, T/C [29] was 22.9% and the viability, T/C [30] was 17.8%. For the same molecule, the viability, T/C [31] was 28.7%, the viability, T/C [32] was 23.1% and the viability, T/C [33] was 20.2%. For the same molecule, the viability, T/C [34] was 22.3%, the viability, T/C [35] was 22.8% and the viability, T/C [36] was 17.9%.

`CC(CO)NC(=O)c1cc(-c2ccc(Cl)cc2)nn(-c2cnn(C)c2)c1=O` (centres undefined) + CNC(=O)c1ccc(Nc2nc(OC3CCCC3)c3c(-c4ccc5nc(C)oc5c4)c[nH]c3n2)c(OC)c1 showed an IC50 (second compound 0.0316 µM) of over 10 µM, an IC50 (second compound 0.1 µM) of over 10 µM and an IC50 (second compound 0.316 µM) of over 10 µM. The IC50 (second compound 1 µM) was over 10 µM, the IC50 (second compound 3.16 µM) was over 10 µM and the IC50 (second compound 10 µM) was over 10 µM. It also gave a viability, T/C [1] of 117%, a viability, T/C [2] of 111% and a viability, T/C [3] of 108%. For the same molecule, the viability, T/C [4] was 117%, the viability, T/C [5] was 109% and the viability, T/C [6] was 99.6%. For the same molecule, the viability, T/C [7] was 131%, the viability, T/C [8] was 113% and the viability, T/C [9] was 116%. For the same molecule, the viability, T/C [10] was 95.4%, the viability, T/C [11] was 101% and the viability, T/C [12] was 83.7%. It also gave a viability, T/C [13] of 79.8%, a viability, T/C [14] of 76.9% and a viability, T/C [15] of 73.2%. The viability, T/C [16] was 71.4%, the viability, T/C [17] was 72.7% and the viability, T/C [18] was 68.9%. For the same molecule, the viability, T/C [19] was 64.2%, the viability, T/C [20] was 63.7% and the viability, T/C [21] was 57.8%. The viability, T/C [22] was 57.5%, the viability, T/C [23] was 57.5% and the viability, T/C [24] was 49%. The viability, T/C [25] was 58.2%, the viability, T/C [26] was 57.6% and the viability, T/C [27] was 55.3%. The viability, T/C [28] was 54.7%, the viability, T/C [29] was 56.9% and the viability, T/C [30] was 48.3%. For the same molecule, the viability, T/C [31] was 52.4%, the viability, T/C [32] was 56.9% and the viability, T/C [33] was 56.2%. For the same molecule, the viability, T/C [34] was 58.5%, the viability, T/C [35] was 55.5% and the viability, T/C [36] was 44.8%.
